Test results reported in patent US10961301B2, “Cell-penetrating anti-DNA antibodies and uses thereof inhibit DNA repair” (Yale University, priority 2011, dated 2021).

Columns and labels:
[1] = tested on: BRCA2-deficient PEO1 ovarian cancer cells; details: 3 days after treatment; 3 nM doxorubicin, 10 μM 3E10
[2] = tested on: BRCA2-proficient PEO1 C4-2 ovarian cancer cells; details: 3 days after treatment; 3 nM doxorubicin, 10 μM 3E10

## COc1cccc2c1C(=O)c1c(O)c3c(c(O)c1C2=O)C[C@@](O)(C(=O)CO)C[C@@H]3O[C@H]1C[C@H](N)[C@H](O)[C@H](C)O1 [doxorubicin]
[1]
  cell death, BRCA2-deficient cells: not significantly toxic
[2]
  cell death, BRCA2-proficient cells: not significantly toxic
